Structures are written as SMILES.

The target of one assay is T1, K-Ras G12D (Homo sapiens, UniProt P01116, G12D).
T1 construct: made in house; host or cells: E. coli, e.g. BL21 (DE3)
Nature of the assay: PPI-HTRF assay, K-Ras G12D / SOS1 interaction. The following applies: HTRF, K-Ras G12D; read-out: PPI-HTRF-5 nM (K-Ras G12D IC50). The format is biochemical. An excerpt: (§1) This assay can be also used to assess a selective inhibition or reduction of signaling output of a mutant Ras protein relative to a wildtype, or relative to a different mutant Ras protein. For example, the equilibrium interaction of wildtype Kras or K-Ras mutant (e.g., wildtype or a mutant thereof) with SOS1 (e.g., hSOS1) can be assessed as a proxy or an indication for a subject compound's ability to bind and inhibit Ras protein. HTRF assay detects from (i) a fluorescence resonance energy transfer (FRET) donor (e.g., antiGST-Europium) that is bound to GST-tagged K-Ras mutant to (ii) a FRET acceptor (e.g., anti-6His-XL665) bound to a His-tagged hSOS1.
(§2) The assay buffer can contain ˜5 mM HEPES pH 7.4, ˜150 mM NaCl, ˜1 mM DTT, 0.05% BSA and 0.0025% (v/v) Igepal. A Ras working solution is prepared in an assay buffer containing typically a suitable amount of the protein construct (e.g., GST-tagged K-Ras mutant) and the FRET donor (e.g., antiGST-Eu(K) from Cisbio, France). A SOS1 working solution is prepared in an assay buffer containing suitable amount of the protein construct (e.g., His-hSOS1) and the FRET acceptor (e.g., anti-6His-XL665 from Cisbio, France). A suitable amount of the protein construct will depend on the range of activity or range of IC50 values being detected or under investigation. For detecting IC50 within a range of 500 nM, the protein constructs of the same range of molarity can be utilized.
(§3) A fixed volume of DMSO with or without test compound is transferred into a 384-well plate. Ras working solution is added to all wells of the test plate. SOS1 working solution is added to all wells except for those that are subsequently filled the inhibitor control solution. Upon incubation for about 10 minutes or longer, the fluorescence is measured with a M1000Pro plate reader (Tecan) using HTRF detection (excitation 337 nm, emission 1: 620 nm, emission 2: 665 nm). Compounds are tested in duplicate at different concentrations (for example, 10 μM, 2.5 μM, 0.63 μM, 0.16 μM, 0.04 μM, 0.01 μM test compound). The ratiometric data (i.e., emission 2 divided by emission 1) is used to calculate IC50 values against Ras using GraphPad Prism (GraphPad software). Following this general procedure, samples are tested with or without a subject compound disclosed herein including compounds exemplified in Table 1 to assess their abilities to inhibit a mutant K-Ras relative to another K-Ras (e.g., different mutant or wildtype). Signaling output measured in terms of IC50 values can be obtained, a ratio of IC50 against one mutant relative to another mutant can be calculated. For instance, a selective reduction of K-Ras G12D signaling output can be evidenced by a ratio greater than one. In particular, a selective reduction of K-Ras G12D signaling relative to K-Ras WT signaling is evidenced if the ratio of IC50 (against K-Ras WT) to IC50 (against K-Ras G12D) is greater than 1.
(In TR-FRET formats the signal depends on donor and acceptor labels being close together.)

The next assay deals with GP2D cells. Nature of the assay: Ras cellular assay, cell proliferation GP2D. Type of assay: cell-based. The method, then: (§4) For example, this assay can be also used to assess selective growth inhibition of a mutant Ras protein relative to a wildtype, or relative to a different mutant Ras protein.
ASPC-1 (ATCC CRL-1682), Panc-10.05 (ATCC CRL-2547), A427, GP2d cell lines or any other cell lines comprising a G12D mutation can be used to assess Ras cellular signaling in vitro, e.g., in response to a compound described herein. For example, ASPC-1 culture medium is prepared with RPMI-1640 and 10% heat-inactivated FBS. Panc-10.05 culture medium is prepared with RPMI-1640, 10 Units/mL human recombinant insulin, and 10% FBS. A427 cell culture is prepared with RPMI-1640 and 10% heat-inactivated FBS. A CellTiter-Glo (CTG) luminescent based assay (Promega) is used to assess growth of the cells, as a measurement of the ability of the compounds herein to inhibit Ras signaling in the cells. The cells (e.g., 800 per well) are seeded in their respective culture medium in standard tissue culture-treated 384-well format plates (Falcon #08-772-116) or ultra-low attachment surface 384-well format plates (S-Bio #MS-9384UZ). The day after plating, cells are treated with a dilution series (e.g., a 9 point 3-fold dilution series) of the compounds herein (e.g., approximately 40 μL final volume per well). Cell viability can be monitored (e.g., approximately 5 days later) according to the manufacturer's recommended instructions, where the CellTiter-Glo reagent is added (e.g., approximately 10 μL), vigorously mixed, covered, and placed on a plate shaker (e.g., approximately for 20 min) to ensure sufficient cell lysis prior to assessment of luminescent signal. The IC50 values are determined using the four parameter fit. The resulting IC50 value is a measurement of the ability of the test compound to reduce cell growth of Ras-driven cells (e.g., tumor cell lines) in vitro and/or in vivo.

The next assay has as its target T2, K-Ras G12S (Homo sapiens, UniProt P01116, G12S).
T2 construct: made in house; host or cells: E. coli, e.g. BL21 (DE3)
In words: PPI-HTRF assay, K-Ras G12S / SOS1 interaction. As to conditions: read-out: PPI-HTRF-5 nM (K-Ras G12S IC50). The format is biochemical.
Excerpt: as §1, §2, §3

The target in a further assay is T3, K-Ras G12V (Homo sapiens, UniProt P01116, G12V).
T3 construct: made in house; host or cells: E. coli, e.g. BL21 (DE3)
In words: PPI-HTRF assay, K-Ras G12V / SOS1 interaction. Type of assay: biochemical. As to conditions: HTRF, K-Ras G12V; read-out: PPI-HTRF-5 nM (K-Ras G12V IC50).
Excerpt: as §1, §2, §3

The target of the next assay is T4, wildtype K-Ras (Homo sapiens, UniProt P01116).
T4 construct: made in house; host or cells: E. coli, e.g. BL21 (DE3)
In words: PPI-HTRF assay, wildtype K-Ras / SOS1 interaction. The format is biochemical. The following applies: HTRF, K-Ras wt; read-out: PPI-HTRF-5 nM (K-Ras wt IC50).
Excerpt: as §1, §2, §3

In another assay the test system is SW620 cells. Nature of the assay: Ras cellular assay, cell proliferation SW620. The format is cell-based. As to conditions: Homo sapiens, SW-620.
Excerpt: as §4

T2 sequence (P01116 1-188 isoform P01116-2 G12S): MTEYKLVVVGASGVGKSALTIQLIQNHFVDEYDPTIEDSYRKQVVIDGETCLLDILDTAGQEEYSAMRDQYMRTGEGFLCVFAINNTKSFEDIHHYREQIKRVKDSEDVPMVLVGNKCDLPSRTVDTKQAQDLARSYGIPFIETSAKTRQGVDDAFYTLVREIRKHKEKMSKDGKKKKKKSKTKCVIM
T3 sequence (P01116 1-188 isoform P01116-2 G12V): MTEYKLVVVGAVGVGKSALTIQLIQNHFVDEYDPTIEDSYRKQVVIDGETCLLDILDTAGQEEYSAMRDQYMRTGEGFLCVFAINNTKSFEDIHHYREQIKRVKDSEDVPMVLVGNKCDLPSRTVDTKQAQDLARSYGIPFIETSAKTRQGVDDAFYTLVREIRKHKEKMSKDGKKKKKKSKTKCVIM
T1 sequence (P01116 1-188 isoform P01116-2 G12D): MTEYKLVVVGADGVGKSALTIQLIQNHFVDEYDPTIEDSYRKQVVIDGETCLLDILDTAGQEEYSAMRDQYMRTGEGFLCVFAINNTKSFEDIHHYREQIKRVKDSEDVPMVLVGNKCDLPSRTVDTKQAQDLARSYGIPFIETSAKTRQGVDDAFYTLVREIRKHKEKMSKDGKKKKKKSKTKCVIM
T4 sequence (P01116 1-188 isoform P01116-2): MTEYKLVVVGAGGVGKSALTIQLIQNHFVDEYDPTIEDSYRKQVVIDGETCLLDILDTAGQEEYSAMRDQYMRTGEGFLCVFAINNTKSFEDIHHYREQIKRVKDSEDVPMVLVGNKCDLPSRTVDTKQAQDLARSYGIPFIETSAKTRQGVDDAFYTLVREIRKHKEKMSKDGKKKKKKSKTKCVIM

Broadly, the IC50 is the concentration at which inhibition is half-maximal. With `N#Cc1c(N)sc2c(F)ccc(-c3c(Cl)c4c5c(nc(OC[C@@]67CCCN6C[C@H](F)C7)nc5c3F)N3CCC(C#N)CC3CO4)c12` (single isomer, unassigned) [compound 211], the IC50 at K-Ras G12D and with GP2D cells was under 5 µM in each case.

Regarding `N#Cc1c(N)sc2c(F)ccc(-c3c(Cl)c4c5c(nc(OC[C@@]67CCCN6C[C@H](F)C7)nc5c3F)N3CC5(CCN5C(=O)n5cncn5)CC3CO4)c12` (stereo partly drawn) [compound 190, 2-amino-4-(6′-chloro-4′-fluoro-2′-(((2R,7aS)-2-fluorotetrahydro-1H-pyrrolizin-7a(5H)-yl)methoxy)-1-(1H-1,2,4-triazole-1-carbonyl)-8a′,9′-dihydro-8′H,11′H-spiro[azetidine-2,10′-pyrrolo[2′,1′:3,4][1,4]oxazepino[5,6,7-de]quinazolin]-5′-yl)-7-fluorobenzo[b]thiophene-3-carbonitrile], the IC50 on K-Ras G12D and in the assay with GP2D cells was under 5 µM in each case.

For `N#Cc1c(N)sc2c(F)ccc(-c3c(Cl)c4c5c(nc(OC[C@@]67CCCN6C[C@H](F)C7)nc5c3F)N(CC(F)F)C3CN(C=O)CC3O4)c12` (stereo partly drawn) [compound 201, 2-amino-4-(6-chloro-11-(2,2-difluoroethyl)-4-fluoro-2-(((2R,7aS)-2-fluorotetrahydro-1H-pyrrolizin-7a(5H)-yl)methoxy)-9-formyl-7a,8,9,10,10a,11-hexahydropyrrolo[3′,4′:2,3][1,4]oxazepino [5,6,7-de]quinazolin-5-yl)-7-fluorobenzo[b]thiophene-3-carbonitrile], the IC50 on K-Ras G12S, on K-Ras G12V, on K-Ras G12D and on wildtype K-Ras was under 5 µM in each case.

As to `N#Cc1c(N)sc2c(F)ccc(-c3c(Cl)c4c5c(nc(OC[C@@]67CCCN6C[C@H](F)C7)nc5c3F)N3CCC(F)(F)CC3CO4)c12` (stereo partly drawn) [compound 203, 2-amino-4-(6-chloro-4,10,10-trifluoro-2-(((2R,7aS)-2-fluorotetrahydro-1H-pyrrolizin-7a(5H)-yl)methoxy)-8,8a,9,10,11,12-hexahydropyrido[2′,1′:3,4][1,4]oxazepino [5,6,7-de]quinazolin-5-yl)-7-fluorobenzo[b]thiophene-3-carbonitrile], the IC50 at K-Ras G12S, on K-Ras G12V, on K-Ras G12D and on wildtype K-Ras was under 5 µM in each case.

With `N#Cc1c(N)sc2c(F)ccc(-c3c(Cl)c4c5c(nc(OC[C@@]67CCCN6C[C@H](F)C7)nc5c3F)N3CCC[C@@H]3CCO4)c12` [compound 183, 2-amino-4-((13aR)-10-chloro-8-fluoro-6-(((2R,7aS)-2-fluorotetrahydro-1H-pyrrolizin-7a(5H)-yl)methoxy)-1,2,3,12,13,13a-hexahydropyrrolo[1′,2′:5,6][1,5]oxazocino [4,3,2-de]quinazolin-9-yl)-7-fluorobenzo[b]thiophene-3-carbonitrile], the IC50 in the assay with GP2D cells was under 5 µM.

Regarding `N#Cc1c(N)sc2c(F)ccc(-c3c(Cl)c4c5c(nc(OC[C@@]67CCCN6C[C@H](F)C7)nc5c3F)N3C[C@H](N)C[C@H]3CO4)c12` [compound 195, 2-amino-4-((8aS,10R)-10-amino-6-chloro-4-fluoro-2-(((2R,7aS)-2-fluorotetrahydro-1H-pyrrolizin-7a(5H)-yl)methoxy)-8a,9,10,11-tetrahydro-8H-pyrrolo[2′,1′:3,4][1,4]oxazepino[5,6,7-de]quinazolin-5-yl)-7-fluorobenzo[b]thiophene-3-carbonitrile], the IC50 on K-Ras G12S, at K-Ras G12V, on K-Ras G12D and at wildtype K-Ras was under 5 µM each time.

In the case of `N#Cc1c(N)sc2c(F)ccc(-c3c(Cl)c4c5c(nc(OCC67CCCN6C[C@H](F)C7)nc5c3F)N3CCCCC3CCO4)c12` (single isomer, unassigned) [compound 184], the IC50 on K-Ras G12D and in the assay with GP2D cells was under 5 µM each time.

`N#Cc1c(N)sc2c(F)ccc(-c3c(Cl)c4c5c(nc(OC[C@@]67CCCN6C[C@H](F)C7)nc5c3F)N3C[C@@H](N)C[C@H]3CO4)c12` [compound 191, 2-amino-4-((8aS,10S)-10-amino-6-chloro-4-fluoro-2-(((2R,7aS)-2-fluorotetrahydro-1H-pyrrolizin-7a(5H)-yl)methoxy)-8a,9,10,11-tetrahydro-8H-pyrrolo[2′,1′:3,4][1,4]oxazepino[5,6,7-de]quinazolin-5-yl)-7-fluorobenzo[b]thiophene-3-carbonitrile]: the IC50 at K-Ras G12S, at K-Ras G12V, on K-Ras G12D and on wildtype K-Ras was under 5 µM in each case.

In the assay with GP2D cells, `N#CCC1CCN2c3nc(OC[C@@]45CCCN4C[C@H](F)C5)nc4c(F)c(-c5ccc(F)c6sc(N)c(C#N)c56)c(Cl)c(c34)OCC2C1` (single isomer, unassigned) [compound 162] had an IC50 of under 5 µM.

Turning to `CN1c2nc(OC[C@@]34CCCN3C[C@H](F)C4)nc3c(F)c(-c4ccc(F)c5sc(N)c(C#N)c45)c(Cl)c(c23)OC2CN(C(=O)C(F)F)CC21` (stereo partly drawn) [compound 147, 2-amino-4-(6-chloro-9-(2,2-difluoroacetyl)-4-fluoro-2-(((2R,7aS)-2-fluorotetrahydro-1H-pyrrolizin-7a(5H)-yl)methoxy)-11-methyl-7a,8,9,10,10a,11-hexahydropyrrolo[3′,4′:2,3][1,4]oxazepino [5,6,7-de]quinazolin-5-yl)-7-fluorobenzo[b]thiophene-3-carbonitrile], the IC50 on K-Ras G12S, on K-Ras G12V, on K-Ras G12D and on wildtype K-Ras was under 5 µM each time.

With `CC(O)C1C[C@H]2CCCN2c2nc(OC[C@@]34CCCN3C[C@H](F)C4)nc3c(F)c(-c4ccc(F)c5sc(N)c(C#N)c45)c(Cl)c(c23)O1` (single isomer, unassigned) [compound 135], the IC50 in the assay on GP2D cells is under 5 µM; with SW620 cells, over 5 µM.

Consider `N#Cc1c(N)sc2c(F)ccc(-c3c(Cl)c4c5c(nc(OCC67CCCN6C[C@H](F)C7)nc5c3F)N3CCC(OC(F)F)CC3CO4)c12` (single isomer, unassigned) [compound 118], for which the IC50 on K-Ras G12S, on K-Ras G12V, at K-Ras G12D and on wildtype K-Ras was under 5 µM throughout.

Values taken from patent US12059425B2, “Heterocyclic compounds and uses thereof” (Kumquat Biosciences Inc., priority 2022, dated 2024).
